What was measured:
ZAC^H166A = target: T1, ZAC^H166A (Homo sapiens, UniProt Q401N2, A152T/H190A); assay: TEVC in oocytes, ZAC H166A mutant; type: cell-based
T1 construct: expressed in transfected cells; host or cells: Xenopus oocytes injected with cRNA (pUNIV vector)
Description: (§1) The recordings were performed at room temperature.
(§2) Analysis of the data from the TEVC recordings were performed using Clampfit software version 10.5 (Molecular Devices, Crawley, UK) and GraphPad Prism version 7.0c (GraphPad Software, La Jolla, CA). Unless otherwise stated, the inward currents induced by agonists in oocytes were normalized to the maximal response elicited by a specific agonist (agonist Imax) on each oocyte. Concentration-response and concentration-inhibition curves were fitted in GraphPad Prism by nonlinear regression using the equation for sigmoidal dose-response with variable slope. Each data point represents the mean ± S.E.M. value of recordings performed on at least five oocytes in total from at least two different batches. […] The null hypothesis was rejected at P < 0.05, and the differences between the means were analyzed by Tukey’s multiple comparisons test.
(§3) The putative involvement of candidate residues in Clusters 1, 2, 3 and 4 in Zn^2+ binding to ZAC was investigated in by an elaborate alanine mutagenesis scanning. […] The determined IpH 4.0 value was used in part as a control and in part to enable the distinction of ZAC mutants non-responsive to Zn^2+ due to elimination of their ability to bind the metal ion from those where the mutation had eliminated cell surface expression and/or disrupted overall functionality of the receptor complex. […]

ZAC^D118A = target: T2, ZAC^D118A (Homo sapiens, UniProt Q401N2, A152T/D142A); assay: TEVC in oocytes, ZAC D118A mutant; type: cell-based
T2 construct: expressed in transfected cells; host or cells: Xenopus oocytes injected with cRNA (pUNIV vector)
Description: as §1, §2, §3

ZAC/m5-HT3A-II = assay: TEVC in oocytes expressing ZAC/m5-HT3A-II chimera; type: cell-based, mouse/human; settings: Zn^2+ 10 mM; H^+ pH 4.0; data not shown
Description: as §1

ZAC^D105A = target: T3, ZAC^D105A (Homo sapiens, UniProt Q401N2, A152T/D129A); assay: TEVC in oocytes, ZAC D105A mutant; type: cell-based
T3 construct: expressed in transfected cells; host or cells: Xenopus oocytes (cRNA injection, pUNIV vector)
Description: as §1, §2, §3

ZAC^D105A/D108A = target: T4, ZAC^D105A/D108A (Homo sapiens, UniProt Q401N2, A152T/D129A/D132A); assay: TEVC in oocytes, ZAC D105A/D108A mutant; type: cell-based; settings: 10 mM Zn^2+; data not shown
T4 construct: expressed in transfected cells; host or cells: Xenopus oocytes injected with cRNA (pUNIV vector)
Description: as §1, §2, §3

ZAC/m5-HT3A = assay: TEVC in oocytes expressing ZAC/m5-HT3A chimera; type: cell-based, mouse/human; settings: 10 mM Zn^2+; n = 5
Description: as §1
(§4) Analysis of the data from the TEVC recordings were performed using Clampfit software version 10.5 (Molecular Devices, Crawley, UK) and GraphPad Prism version 7.0c (GraphPad Software, La Jolla, CA). Unless otherwise stated, the inward currents induced by agonists in oocytes were normalized to the maximal response elicited by a specific agonist (agonist Imax) on each oocyte. Concentration-response and concentration-inhibition curves were fitted in GraphPad Prism by nonlinear regression using the equation for sigmoidal dose-response with variable slope. Each data point represents the mean ± S.E.M. value of recordings performed on at least five oocytes in total from at least two different batches. For the data where statistical analysis was performed, a one-way ANOVA was used. The null hypothesis was rejected at P < 0.05, and the differences between the means were analyzed by Tukey’s multiple comparisons test.
(§5) Initially, we constructed four chimeric subunits fusing the ZAC ECD or TMD-ICD with the complementary domains from either the m5-HT3A or the hα1 GlyR subunit: ZAC/m5-HT3A, m5-HT3A/ZAC, ZAC/hα1-Gly and hα1-Gly/ZAC (Fig. 1A). […] (Fig. 1A).

[1] = tested on: ZAC^L9′V, ZAC^L9′I and ZAC^L9′T; assay: TEVC in oocytes, L9′V, L9′I and L9′T mutants (collective statement); type: cell-based, human; settings: compared to WT ZAC; range over the three mutants
Description: as §1, §4

ZAC^FPM/hα1-Gly = assay: TEVC in oocytes, Cys-loop modified chimera ZAC^FPM/hα1-Gly; type: cell-based, human; settings: data not shown
Description: as §1
To probe the effects of exchanges of regions involved in the ECD/TMD cross-talk between the two CLRs fused in a chimera on its functionality, we constructed 12 additional chimeras, three for each of the four original chimeras (Fig. 1A). Inspired by the similar modifications that have been introduced in a functional GLIC/hα1-Gly chimera, we swapped one or both of two specific regions: the three-residue FPX (Phe-Pro-X) motif in the Cys-loop of the ECD (FPR, FPF and […] in ZAC, m5-HT3A and hα1 GlyR, respectively), which is known to protude into proximity of the M2-M3 linker during the ECD/TMD cross-talk, and the extracellular C-terminus of the TMD, which differs substantially in both amino acid sequence and length between ZAC and the two classical CLRs combined with it in the chimeras (Fig. 4B). […] In light of this, it was not surprising that the four chimeras comprising exchanges of both the FPX motif and the C-terminus also were non-functional (data not shown).

hα1-Gly/ZAC = assay: TEVC in oocytes expressing hα1-Gly/ZAC chimera; type: cell-based, human; settings: 10 mM Zn^2+; outward current; n = 5
Description: as §1, §4, §5

T1 sequence (Q401N2 26-412 A152T/H190A): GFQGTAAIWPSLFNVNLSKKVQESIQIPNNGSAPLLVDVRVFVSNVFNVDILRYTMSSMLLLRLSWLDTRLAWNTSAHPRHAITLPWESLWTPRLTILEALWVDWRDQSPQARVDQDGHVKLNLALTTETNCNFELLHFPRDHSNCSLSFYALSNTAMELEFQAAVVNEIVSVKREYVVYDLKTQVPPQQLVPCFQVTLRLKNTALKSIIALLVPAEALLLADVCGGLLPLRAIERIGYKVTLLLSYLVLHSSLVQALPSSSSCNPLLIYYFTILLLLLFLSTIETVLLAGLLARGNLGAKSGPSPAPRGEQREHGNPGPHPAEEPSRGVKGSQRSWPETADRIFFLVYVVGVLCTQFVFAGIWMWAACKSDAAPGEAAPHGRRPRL
T3 sequence (Q401N2 26-412 D129A/A152T): as the sequence (Q401N2 26-412 A152T/H190A) above, with D104A, A165H counted along it
T2 sequence (Q401N2 26-412 D142A/A152T): as the sequence (Q401N2 26-412 A152T/H190A) above, with D117A, A165H counted along it
T4 sequence (Q401N2 26-412 D129A/D132A/A152T): as the sequence (Q401N2 26-412 A152T/H190A) above, with D104A, D107A, A165H counted along it

Structure (SMILES): [Cl-].[Cl-].[Zn+2] [Zn^2+, ZnCl2]
- agonist properties compared to WT ZAC (ZAC^H166A): WT-like agonist properties
- agonist properties compared to WT ZAC (ZAC^D118A): did not differ substantially
- agonist-evoked current (ZAC/m5-HT3A-II): did not evoke significant currents
- concentration-response relationship compared to WT ZAC (ZAC^D105A): did not differ significantly
- agonist responsiveness (ZAC^D105A/D108A): non-responsive
- I10 mM Zn2+ ± S.E.M. (ZAC/m5-HT3A): −0.0038 ± 0.0009 μA
- left-shift of Zn^2+ concentration-response relationship [1]: 8–30 fold
- concentration-response relationship compared to ZAC/hα1-Gly (ZAC^FPM/hα1-Gly): not significantly different
- I10 mM Zn2+ ± S.E.M. (hα1-Gly/ZAC): 0.0298 ± 0.0058 μA
